We go through nine compounds from US20260199323A1, “LIGAND COMPOUNDS FOR E3 UBIQUITIN LIGASE, PROTEIN DEGRADERS DEVELOPED ON BASIS OF LIGAND COMPOUNDS, AND USES THEREOF” (GLUETACS THERAPEUTICS (SHANGHAI) CO., LTD., priority 2021, published 2026).

The subject of experiment [1] is SR. The experiment is described as follows: CCK-8 tumor cell proliferation, SR. It counts as cell-based, Human. The conditions noted are these: Homo sapiens, SR, read-out: IC50 inhibiting proliferation of tumor cells, SR. The method in brief: (§1)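 Viability determined colorimetrically with CCK-8 following compound treatment. Dosing began 24 h post-plating using ten 5-fold dilutions capped at 10 μM; growth-inhibition curves yielded IC50.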

Experiment [2] concerns HCC827. The experiment is described as follows: CCK-8 tumor cell proliferation, HCC827. It counts as cell-based, Human. The conditions noted are these: for IC50: Homo sapiens, HCC827, read-out: IC50 inhibiting proliferation of tumor cells, HCC827; for IC50 for inhibiting the proliferation of tumor cells, HCC827: Table 11, designed based on EGFR inhibitors, 96 h. The procedure:
The tumor cells used herein were cultured in a cell culture medium listed in table 4 at 37° C. in an incubator with 5% CO2.
(§2) After 24 h, 100 μL of the inoculated cells were treated with 0.5 μL of the compounds of the present disclosure (including the compounds in Tables 1 and 3, and compounds of examples) at 10 different successively decreasing concentrations (starting at the highest concentration of 10 μM; 5-fold serial dilutions). After the cells were treated with the compounds of the present disclosure for a period of time, the cell viability detection reagent was added to the culture medium for cell viability assessment according to the instructions provided with the CCK-8 kit. […] The growth inhibition of the compounds of the present disclosure on cells was plotted by Prism Graphpad software, and the IC50 values of the compounds of the present disclosure were calculated therefrom.

In experiment [3] the test system is MDA-MB-231. The experiment is described as follows: CCK-8 tumor cell proliferation, MDA-MB-231. It counts as cell-based, Human. The conditions noted are these: Homo sapiens, MDA-MB-231, read-out: IC50 inhibiting proliferation of tumor cells, MDA-MB-231. An outline of the steps:
as §1

Experiment [4] concerns PC-9. The experiment is described as follows: CCK-8 tumor cell proliferation, PC-9. The conditions noted are these: Homo sapiens; Table 15, ALK inhibitor based; PC-9; read-out: IC50 inhibiting proliferation of tumor cells, PC-9. It counts as cell-based, Human.
The test system of experiment [5] is MM.1S. The experiment is described as follows: CCK-8 tumor cell proliferation, MM.1S. It counts as cell-based. The following applies: Homo sapiens, MM1.S, MM.1S, read-out: IC50 inhibiting proliferation of tumor cells, MM.1S. An outline of the steps:
as §1

Experiment [6] relates to LNcap. The experiment is described as follows: CCK-8 tumor cell proliferation, LNcap. It counts as cell-based, Human. The conditions noted are these: Homo sapiens. The procedure: (§3) The tumor cells used herein were cultured in a cell culture medium listed in table 4 at 37° C. in an incubator with 5% CO2. Prior to experimentation, all cells used were correctly identified by STR profiling, and tested negative for mycoplasma through routine screenings.
as §2, with “IC50 values of the compounds of the present disclosure (including the compounds in Tables 1 and 3, and compounds of examples) were measured using the Meilun Cell Counting Kit-8 kit from Dalian Meilun Biotech Co., Ltd. Assay details are as follows: tumor cells were seeded in a 96-well plate at a density listed in Table 5. After 24” for “After 24”

Experiment [7] deals with CCRF-CEM. The experiment is described as follows: CCK-8 tumor cell proliferation, CCRF-CEM. It counts as cell-based, Human. The following applies: Homo sapiens, CCRF-CEM, read-out: IC50 inhibiting proliferation of tumor cells, CCRF-CEM. An outline of the steps: as §1
Experiment [8] relates to Mino. The experiment is described as follows: CCK-8 tumor cell proliferation, Mino. It counts as cell-based, Human. The conditions noted are these: Homo sapiens, Mino, read-out: IC50 inhibiting proliferation of tumor cells, Mino. An outline of the steps: as §1
The subject of experiment [9] is MM.1R. The experiment is described as follows: CCK-8 tumor cell proliferation, MM.1R. It counts as cell-based. The conditions noted are these: read-out: IC50 inhibiting proliferation of tumor cells, MM.1R. An outline of the steps:
as §1

Experiment [10] deals with SU-DHL-4. The experiment is described as follows: CCK-8 tumor cell proliferation, SU-DHL-4. It counts as cell-based, Human. The conditions noted are these: Homo sapiens, Table 19, IRAK4 inhibitor based, read-out: IC50 inhibiting proliferation of tumor cells, SU-DHL-4. Here is the method: as §3
as §2, with “IC50 values of the compounds of the present disclosure (including the compounds in Tables 1 and 3, and compounds of examples) were measured using the Meilun Cell Counting Kit-8 kit from Dalian Meilun Biotech Co., Ltd. Assay details are as follows: tumor cells were seeded in a 96-well plate at a density listed in Table 5. After 24” for “After 24”

Experiment [11] deals with Jurkat. Briefly: CCK-8 tumor cell proliferation, Jurkat. It counts as cell-based, Human. The conditions noted are these: Homo sapiens, Table 19, IRAK4 inhibitor based, read-out: IC50 inhibiting proliferation of tumor cells, Jurkat. An outline of the steps:
as §1

The subject of experiment [12] is Kasumi-1. The experiment is described as follows: CCK-8 tumor cell proliferation, Kasumi-1. The following applies: Homo sapiens; Table 19, IRAK4 inhibitor based; Kasumi-1; read-out: IC50 inhibiting proliferation of tumor cells, Kasumi-1. It counts as cell-based, Human. Here is the method:
as §3
as §2, with “IC50 values of the compounds of the present disclosure (including the compounds in Tables 1 and 3, and compounds of examples) were measured using the Meilun Cell Counting Kit-8 kit from Dalian Meilun Biotech Co., Ltd. Assay details are as follows: tumor cells were seeded in a 96-well plate at a density listed in Table 5. After 24” for “After 24”

The subject of experiment [13] is Hep3B2.7-1. The experiment is described as follows: CCK-8 tumor cell proliferation, Hep3B2.7-1. It counts as cell-based, Human. The following applies: Homo sapiens; Table 19, IRAK4 inhibitor based; Hep3B2.7-1; read-out: IC50 inhibiting proliferation of tumor cells, Hep3B2.7-1. The procedure: as §3
as §2, with “IC50 values of the compounds of the present disclosure (including the compounds in Tables 1 and 3, and compounds of examples) were measured using the Meilun Cell Counting Kit-8 kit from Dalian Meilun Biotech Co., Ltd. Assay details are as follows: tumor cells were seeded in a 96-well plate at a density listed in Table 5. After 24” for “After 24”

The mark [14] stands for this setting: Table 20, BCL-2 inhibitor based, LNcap, read-out: IC50 inhibiting proliferation of tumor cells, LNcap.
Setting [15] is: Table 20, BCL-2 inhibitor based.
[16] abbreviates: Table 19, IRAK4 inhibitor based.

Read-outs that look alike come from different tables or passages of the source.

As for `CCc1cc2c(cc1N1CCC(N(C)Cc3ccc4c(c3)CN(C3CCC(=O)NC3=O)C4=O)CC1)C(C)(C)c1[nH]c3cc(C#N)ccc3c1C2=O` (stereo not drawn) [GT-03474, 8-(4-(((2-(2,6-dioxopiperidin-3-yl)-1-oxoisoindolin-5-yl)methyl)(methyl)amino)piperidin-1-yl)-9-ethyl-6,6-dimethyl-11-oxo-6,11-dihydro-5H-benzo[b]carbazole-3-carbonitrile], the IC50 in experiment [1] (Table 15, ALK inhibitor based) is less than 50 nM; in [2] (Table 15, ALK inhibitor based), 1000 to 5000 nM; in experiment [3] (Table 15, ALK inhibitor based) it was 1000 to 5000 nM; in experiment [4], 500 to 1000 nM.
In the case of `C=CC(=O)Nc1cc(Nc2nccc(-c3cn(C)c4ccccc34)n2)c(OC)cc1N(C)CCN(C)C` [osimertinib, Osimertinib, reference compound], the “IC50 for inhibiting the proliferation of tumor cells, HCC827” value in [2] is listed as “A+”.
As to `CC1(C)CCC(CN2CCN(c3ccc(C(=O)NS(=O)(=O)c4ccc(NCC5CCOCC5)c([N+](=O)[O-])c4)c(Oc4cnc5[nH]ccc5c4)c3)CC2)=C(c2ccc(Cl)cc2)C1` [ABT-199, Venetoclax, reference compound], the IC50 in experiment [5] (Table 20, given as number) is greater than 10000 nM; in experiment [6] (setting [14]) it was 1000 to 5000 nM; in experiment [1] (setting [15]), 500 to 1000 nM; in [7] (Table 20, given as number), greater than 10000 nM; in experiment [2] (setting [15]), 5000 to 10000 nM; in [3] (setting [15]) it was 1000 to 5000 nM.
Turning to `COc1cc(N2CCC(N(C)Cc3cc4c(cc3F)C(=O)N(C3CCC(=O)NC3=O)C4)CC2)ccc1Nc1ncc(Cl)c(Nc2ccccc2P(C)(C)=O)n1` (stereo not drawn) [GT-03601, 3-(5-(((1-(4-((5-chloro-4-((2-(dimethylphosphoryl)phenyl)amino)pyrimidin-2-yl)amino)-3-methoxyphenyl)piperidin-4-yl)(methyl)amino)methyl)-6-fluoro-1-oxoisoindolin-2-yl)piperidine-2,6-dione], the IC50 in experiment [1] (Table 15, ALK inhibitor based) was less than 50 nM; in [2] (Table 15, ALK inhibitor based), 100 to 500 nM; in experiment [3] (Table 15, ALK inhibitor based), 100 to 500 nM; in experiment [8] (Table 15, ALK inhibitor based), 5000 to 10000 nM; in experiment [4], 100 to 500 nM.
On to `CC1(C)CCC(c2ccc(Cl)cc2)=C(CN2CCN(c3ccc(C(=O)NS(=O)(=O)c4ccc(N[C@H](CCN5CCN(Cc6cc(F)c7c(c6)CN(C6CCC(=O)NC6=O)C7=O)CC5)CSc5ccccc5)c(S(=O)(=O)C(F)(F)F)c4)cc3)CC2)C1` (stereo partly drawn) [GT-03479, 4-(4-((4′-chloro-4,4-dimethyl-3,4,5,6-tetrahydro-[1,1′-biphenyl]-2-yl)methyl)piperazin-1-yl)-N-((4-(((2R)-4-(4-((2-(2,6-dioxopiperidin-3-yl)-7-fluoro-1-oxoisoindolin-5-yl)methyl)piperazin-1-yl)-1-(phenylthio)butan-2-yl)amino)-3-((trifluoromethyl)sulfonyl)phenyl)sulfonyl)benzamide], for which the IC50 in experiment [9] (setting [15]) was less than 50 nM; in [5] (setting [15]), less than 50 nM; in experiment [6] (setting [14]) it was less than 50 nM; in [1] (setting [15]), less than 50 nM; in experiment [7] (setting [15]), less than 50 nM; in experiment [2] (setting [15]), 100 to 500 nM. In experiment [3] (setting [15]), the IC50 is less than 50 nM.
As for `O=C1CCC(N2C(=O)c3ccc(CN4CCC(n5cc(NC(=O)c6cnn7ccc(N8CCOCC8)nc67)c(C(F)F)n5)CC4)cc3C2=O)C(=O)N1` (stereo not drawn) [GT-03815, N-(3-(difluoromethyl)-1-(1-((2-(2,6-dioxopiperidin-3-yl)-1,3-dioxoisoindolin-5-yl)methyl)piperidin-4-yl)-1H-pyrazol-4-yl)-5-morpholinopyrazolo[1,5-a]pyrimidine-3-carboxamide], the IC50 in experiment [10] is 5000 to 10000 nM; in experiment [8] (setting [16]) it was 1000 to 5000 nM.
On to `CC1(C)CCC(c2ccc(Cl)cc2)=C(CN2CCN(c3ccc(C(=O)NS(=O)(=O)c4ccc(N[C@H](CCN5CCN(Cc6ccc7c(c6F)CN(C6CCC(=O)NC6=O)C7=O)CC5)CSc5ccccc5)c(S(=O)(=O)C(F)(F)F)c4)cc3)CC2)C1` (stereo partly drawn) [GT-03478, 4-(4-((4′-chloro-4,4-dimethyl-3,4,5,6-tetrahydro-[1,1′-biphenyl]-2-yl)methyl)piperazin-1-yl)-N-((4-(((2R)-4-(4-((2-(2,6-dioxopiperidin-3-yl)-4-fluoro-1-oxoisoindolin-5-yl)methyl)piperazin-1-yl)-1-(phenylthio)butan-2-yl)amino)-3-((trifluoromethyl)sulfonyl)phenyl)sulfonyl)benzamide], for which the IC50 in experiment [9] (setting [15]), in experiment [5] (setting [15]), in experiment [6] (setting [14]), in [1] (setting [15]), in [7] (setting [15]) and in experiment [2] (setting [15]) was less than 50 nM in each case. The IC50 in experiment [3] (setting [15]) is less than 50 nM.
Take `O=C1CCC(N2Cc3cc(CN4CCN(c5ccc(-n6cc(NC(=O)c7coc(-c8ccnc(NCC(F)(F)F)c8)n7)c(C(F)F)n6)cc5)CC4)c(F)cc3C2=O)C(=O)N1` (stereo not drawn) [GT-04269, N-(3-(difluoromethyl)-1-(4-(4-((2-(2,6-dioxopiperidin-3-yl)-6-fluoro-1-oxoisoindolin-5-yl)methyl)piperazin-1-yl)phenyl)-1H-pyrazol-4-yl)-2-(2-((2,2,2-trifluoroethyl)amino)pyridin-4-yl)oxazole-4-carboxamide]: the IC50 in [9] (setting [16]) was 100 to 500 nM; in experiment [11], 50 to 100 nM; in [12] it was 50 to 100 nM; in experiment [6] (Table 19, IRAK4 inhibitor based, Lncap, read-out: IC50 inhibiting proliferation of tumor cells, Lncap), 100 to 500 nM; in [13] it was less than 50 nM; in experiment [7] (setting [16]), 100 to 500 nM.
As for `COc1cc2ncnc(Nc3cccc(Cl)c3F)c2cc1OCc1ccc2c(c1)CN(C1CCC(=O)NC1=O)C2=O` (stereo not drawn) [GT-03325, 3-(5-(((4-((3-chloro-2-fluorophenyl)amino)-7-methoxyquinazolin-6-yl)oxy)methyl)-1-oxoisoindolin-2-yl)piperidine-2,6-dione], in experiment [2], the “IC50 for inhibiting the proliferation of tumor cells, HCC827” value is “A+”.
